Assays:
[1] = xn = mol fraction of the nth substance listed
[2] = refractive index (Na D-line) (dimensionless); xn = mol fraction of the nth substance listed; details: 100.5 kPa, Liquid, Standard Abbe refractometry

CC(=O)OCCC(C)C [3-methylbutyl ethanoate] + CCO
Details	refractive index, [2]	surface tension liquid-gas, [1] [mN/m]
288.15 K, x1 = 0.05	1.36803	23.2
288.15 K, x1 = 0.1	1.37207	23.4
288.15 K, x1 = 0.15	1.37559	23.6
288.15 K, x1 = 0.2	1.3787	23.7
288.15 K, x1 = 0.25	1.38146	23.8
288.15 K, x1 = 0.3	1.38393	24
288.15 K, x1 = 0.35	1.38614	24.1
288.15 K, x1 = 0.4	1.38814	24.2
288.15 K, x1 = 0.45	1.38996	24.3
288.15 K, x1 = 0.5	1.39164	24.4
288.15 K, x1 = 0.55	1.39319	24.5
288.15 K, x1 = 0.6	1.39462	24.6
288.15 K, x1 = 0.65	1.39595	24.7
288.15 K, x1 = 0.7	1.39717	24.8
288.15 K, x1 = 0.75	1.39829	24.9
288.15 K, x1 = 0.8	1.39933	25
288.15 K, x1 = 0.85	1.40031	25.1
288.15 K, x1 = 0.9	1.40122	25.2
288.15 K, x1 = 0.95	1.40207	25.3
288.15 K, x1 = 1	1.40288	25.4
298.15 K, x1 = 0.05	1.36393	22.4
298.15 K, x1 = 0.1	1.36787	22.5
298.15 K, x1 = 0.15	1.37133	22.7
298.15 K, x1 = 0.2	1.3744	22.8
298.15 K, x1 = 0.25	1.37712	22.9
298.15 K, x1 = 0.3	1.37954	–
298.15 K, x1 = 0.35	1.38172	23
298.15 K, x1 = 0.4	1.3837	23.1
298.15 K, x1 = 0.45	1.3855	23.2
298.15 K, x1 = 0.5	1.38717	23.3
298.15 K, x1 = 0.55	1.38871	23.4
298.15 K, x1 = 0.6	1.39013	23.5
298.15 K, x1 = 0.65	1.39144	23.6
298.15 K, x1 = 0.7	1.39265	23.7
298.15 K, x1 = 0.75	1.39378	23.8
298.15 K, x1 = 0.8	1.39482	23.9
298.15 K, x1 = 0.85	1.3958	24
298.15 K, x1 = 0.9	1.3967	24.1
298.15 K, x1 = 0.95	1.39755	24.2
298.15 K, x1 = 1	1.39836	24.3
308.15 K, x1 = 0.05	1.35964	21.6
308.15 K, x1 = 0.1	1.36349	21.6
308.15 K, x1 = 0.15	1.3669	21.7
308.15 K, x1 = 0.2	1.36992	21.8
308.15 K, x1 = 0.25	1.3726	21.9
308.15 K, x1 = 0.3	1.37499	22
308.15 K, x1 = 0.35	1.37714	22.1
308.15 K, x1 = 0.4	1.37909	22.2
308.15 K, x1 = 0.45	1.38087	22.3
308.15 K, x1 = 0.5	1.38251	22.4
308.15 K, x1 = 0.55	1.38404	22.5
308.15 K, x1 = 0.6	1.38545	22.6
308.15 K, x1 = 0.65	1.38675	22.7
308.15 K, x1 = 0.7	1.38795	22.8
308.15 K, x1 = 0.75	1.38907	22.9
308.15 K, x1 = 0.8	1.39011	23
308.15 K, x1 = 0.85	1.39109	23.1
308.15 K, x1 = 0.9	1.39199	23.2
308.15 K, x1 = 0.95	1.39284	23.3
308.15 K, x1 = 1	1.39365	23.4
318.15 K, x1 = 0.05	1.35556	20.6
318.15 K, x1 = 0.1	1.3593	20.6
318.15 K, x1 = 0.15	1.36263	20.7
318.15 K, x1 = 0.2	1.36558	20.8
318.15 K, x1 = 0.25	1.36821	20.9
318.15 K, x1 = 0.3	1.37056	21
318.15 K, x1 = 0.35	1.37268	21.1
318.15 K, x1 = 0.4	1.3746	21.2
318.15 K, x1 = 0.45	1.37634	21.3
318.15 K, x1 = 0.5	1.37795	21.4
318.15 K, x1 = 0.55	1.37944	21.5
318.15 K, x1 = 0.6	1.38082	21.6
318.15 K, x1 = 0.65	1.38211	21.7
318.15 K, x1 = 0.7	1.3833	21.8
318.15 K, x1 = 0.75	1.3844	21.9
318.15 K, x1 = 0.8	1.38543	22
318.15 K, x1 = 0.85	1.3864	22.1
318.15 K, x1 = 0.9	1.3873	22.2
318.15 K, x1 = 0.95	1.38814	22.3
318.15 K, x1 = 1	1.38895	22.4

CCCC(=O)OCCC(C)C [3-methylbutyl butanoate] + CCO
Details	refractive index, 288.15 K	refractive index, 298.15 K	refractive index, 308.15 K	refractive index, 318.15 K	surface tension liquid-gas, 288.15 K [mN/m]	surface tension liquid-gas, 298.15 K [mN/m]	surface tension liquid-gas, 308.15 K [mN/m]	surface tension liquid-gas, 318.15 K [mN/m]
[1], x1 = 0.05	–	–	–	–	23.3	22.6	21.8	20.9
[1], x1 = 0.1	–	–	–	–	23.6	22.8	22	21.1
[1], x1 = 0.15	–	–	–	–	23.8	23	22.2	21.3
[1], x1 = 0.2	–	–	–	–	24	23.1	22.4	21.5
[1], x1 = 0.25	–	–	–	–	24.1	23.3	22.5	21.6
[1], x1 = 0.3	–	–	–	–	24.3	23.4	22.6	21.7
[1], x1 = 0.35	–	–	–	–	24.4	23.5	22.7	21.8
[1], x1 = 0.4	–	–	–	–	24.5	23.6	22.8	21.9
[1], x1 = 0.45	–	–	–	–	24.6	23.7	22.9	22
[1], x1 = 0.5	–	–	–	–	24.7	23.8	23	22.1
[1], x1 = 0.55	–	–	–	–	24.8	23.9	23.1	22.2
[1], x1 = 0.6	–	–	–	–	24.9	23.9	23.2	22.3
[1], x1 = 0.65	–	–	–	–	25	24	23.3	22.4
[1], x1 = 0.7	–	–	–	–	25.1	24.1	23.4	22.5
[1], x1 = 0.75	–	–	–	–	25.2	24.2	23.5	22.6
[1], x1 = 0.8	–	–	–	–	25.3	24.3	23.6	22.7
[1], x1 = 0.85	–	–	–	–	25.4	24.4	23.7	22.8
[1], x1 = 0.9	–	–	–	–	25.5	24.5	23.8	22.9
[1], x1 = 0.95	–	–	–	–	25.6	24.6	23.9	23
[1], x1 = 1	–	–	–	–	25.7	24.7	24	23.1
[2], x1 = 0.05	1.3703	1.36624	1.36195	1.3578	–	–	–	–
[2], x1 = 0.1	1.37602	1.37182	1.36747	1.36327	–	–	–	–
[2], x1 = 0.15	1.3808	1.37656	1.37218	1.36792	–	–	–	–
[2], x1 = 0.2	1.38488	1.38059	1.3762	1.3719	–	–	–	–
[2], x1 = 0.25	1.38839	1.38406	1.37967	1.37533	–	–	–	–
[2], x1 = 0.3	1.39145	1.38709	1.38268	1.37832	–	–	–	–
[2], x1 = 0.35	1.39415	1.38977	1.38535	1.38096	–	–	–	–
[2], x1 = 0.4	1.39656	1.39216	1.38773	1.38332	–	–	–	–
[2], x1 = 0.45	1.39871	1.39431	1.38987	1.38544	–	–	–	–
[2], x1 = 0.5	1.40065	1.39624	1.3918	1.38736	–	–	–	–
[2], x1 = 0.55	1.4024	1.39798	1.39354	1.3891	–	–	–	–
[2], x1 = 0.6	1.40399	1.39956	1.39513	1.39067	–	–	–	–
[2], x1 = 0.65	1.40543	1.401	1.39656	1.3921	–	–	–	–
[2], x1 = 0.7	1.40673	1.4023	1.39786	1.3934	–	–	–	–
[2], x1 = 0.75	1.40793	1.40349	1.39905	1.39459	–	–	–	–
[2], x1 = 0.8	1.40902	1.40458	1.40015	1.39569	–	–	–	–
[2], x1 = 0.85	1.41003	1.40559	1.40116	1.3967	–	–	–	–
[2], x1 = 0.9	1.41096	1.40652	1.4021	1.39763	–	–	–	–
[2], x1 = 0.95	1.41181	1.40737	1.40296	1.39849	–	–	–	–
[2], x1 = 1	1.41259	1.40815	1.40374	1.39927	–	–	–	–

From the NIST ThermoML archive (doi:10.1021/je0601208)
